pKi: −log10 of the molar value. Where a name gives a salt, the structure may show the parent alone.
Biological target: T1, human histamine H3 receptor (Homo sapiens, UniProt Q9Y5N1)
T1 construct: One microgram of supercoiled H3 receptor cDNA was added to the cells and mixed; expressed in transfected cells
Assay: [3H]-N-methylhistamine binding
Settings: membranes of histamine H3 receptor-expressing SK-N-MC cells, 0.8 nM [3H]-N-methylhistamine, 45 min at 25° C.
Experimental: Thus in the present invention receptor binding was determined using the human histamine H3 receptor (See Lovenberg et al Mol. Pharmacol. 1999, 1107). Screening using the human receptor is particularly important for the identification of new therapies for the treatment of human disease. Conventional binding assays for example are determined using rat synaptosomes (Garbarg et al J. Pharmacol. Exp. Ther. 1992, 263, 304), rat cortical membranes (West et al Mol. Pharmacol. 1990, 610), and guinea pig brain (Korte et al Biochem. Biophys. Res. Commun. 1990, 978). Only limited studies have been performed previously using human tissue but these allude to significant differences in the pharmacology of rodent and primate receptors (West et al Eur. J. Pharmacol. 1999, 233).
Transfection of Cells With Human Histamine Receptor
A 10 cm tissue culture dish with a confluent monolayer of SK-N-MC cells was split two days prior to transfection. Using sterile technique the media was removed and the cells were detached from the dish by the addition of trypsin. One fifth of the cells were then placed onto a new 10 cm dish. Cells were grown in a 37° C. incubator with 5% CO2 in Minimal Essential Media Eagle with 10% Fetal Bovine Serum. After two days cells were approximately 80% confluent. These were removed from the dish with trypsin and pelleted in a clinical centrifuge. The pellet was then re-suspended in 400 μL complete media and transferred to an electroporation cuvette with a 0.4 cm gap between the electrodes (Bio-Rad #165-2088). One microgram of supercoiled H3 receptor cDNA was added to the cells and mixed. The voltage for the electroporation was set at 0.25 kV; the capacitance was set at 960 μF. After electroporation the cells were diluted into 10 mL complete media and plated onto four 10 cm dishes. Because of the variability in the efficiency of electroporation, four different concentrations of cells were plated. The ratios used were; 1:20, 1:10, 1:5, with the remainder of the cells being added to the fourth dish. The cells were allowed to recover for 24 hours before adding the selection media (complete media with 600 μg/mL G418). After 10 days dishes were analyzed for surviving colonies of cells. Dishes with well isolated colonies were used. Cells from individual colonies were isolated and tested. SK-N-MC cells were used because they give efficient coupling for inhibition of adenylate cyclase. The clones that gave the most robust inhibition of adenylate cyclase in response to histamine were used for further study.
[^3H]-N-methylhistamine binding
Cell pellets from histamine H3 receptor-expressing SK-N-MC cells were homogenized in 20 mM TrisHCI/0.5 mM EDTA. Supernatants from a 800 g spin were collected, recentrifuged at 30,000 g for 30 minutes. Pellets were re-homogenized in 50 mM Tris/5 mM EDTA (pH 7.4). Membranes were incubated with 0.8 nM [^3H]-N-methylhistamine plus/minus test compounds for 45 min at 25° C. and harvested by rapid filtration over GF/C glass fiber filters (pretreated with 0.3 % polyethylenimine) followed by four washes with ice cold buffer. Filters were dried, added to 4 mL scintillation cocktail and then counted on a liquid scintillation counter. Non-specific binding was defined with 10 μM histamine. The pKi values were calculated based on a Kd of 800 pM and a ligand concentration ([L]) of 800 pM according to the formula: […]

T1 sequence (Q9Y5N1 whole entry): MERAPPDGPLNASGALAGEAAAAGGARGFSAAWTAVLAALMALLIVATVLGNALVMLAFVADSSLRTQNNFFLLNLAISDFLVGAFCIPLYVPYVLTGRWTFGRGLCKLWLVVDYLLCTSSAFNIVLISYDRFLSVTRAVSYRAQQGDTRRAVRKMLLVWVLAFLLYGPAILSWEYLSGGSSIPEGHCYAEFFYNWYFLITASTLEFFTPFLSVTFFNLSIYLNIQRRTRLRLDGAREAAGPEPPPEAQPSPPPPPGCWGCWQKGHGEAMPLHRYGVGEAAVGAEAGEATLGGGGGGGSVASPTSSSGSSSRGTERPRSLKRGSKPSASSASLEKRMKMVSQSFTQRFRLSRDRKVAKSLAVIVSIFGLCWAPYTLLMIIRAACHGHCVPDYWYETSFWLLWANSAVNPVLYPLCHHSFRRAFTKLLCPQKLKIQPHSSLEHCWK

| Structure (SMILES) | pKi |
| --- | --- |
| c1cc(-c2ccc(CN3CCCC3)cc2)c(CN2CCCC2)s1 [Example 5, 1-[(3-(4-Pyrrolidin-1-ylmethyl-phenyl)-thiophen)-2-ylmethyl]-pyrrolidine] | 7.20 |
| c1cc(Oc2ccc(CN3CCCCC3)cc2)ccc1CN1CCCCC1 [Example 7] | 9.18 |
| c1cc(-c2ccc(CN3CCCC3)o2)ccc1CN1CCCC1 [Example 2] | 9.39 |
| c1ccn(Cc2ccc(COc3ccc(CN4CCCC4)cc3)cc2)c1 [Example 20, 1-[4-(4Pyrrolidin1-ylmethyl-phenoxymethyl)-benzyl]-1H-pyrrole] | 7.80 |
| CN(C)CCOc1ccc(C(=O)c2ccc(OCCN(C)C)cc2)cc1 [Example 34, Bis-[4-(2-dimethylamino-ethoxy)-phenyl]-methanone] | 6.90 |
| c1cc(CN2CCCC2)n(Cc2ccc(CN3CCCC3)cc2)c1 [Example 31] | 8.49 |
| c1cc(CCN2CCCC2)ccc1CCc1ccc(CCN2CCCC2)cc1 [Example 29, 1-(2-{4-[2-(1-Phenethyl-pyrrolidine)-ethyl]-phenyl}-ethyl)-pyrrolidine] | 7.58 |
| c1cc(Oc2ccc(CNC3=NCCN3)cc2)ccc1CNC1=NCCN1 [Example 17, 2-[4-(4-(2Imidazolin)-2-ylaminomethyl-phenoxy-)-benzyl-amino]-2-imidazolidone] | 6.46 |
| c1cc(Cn2ccc(CN3CCCC3)c2)ccc1CN1CCCC1 [Example 30] | 7.62 |
| O=S(=O)(c1ccc(CN2CCCC2)cc1)c1ccc(CN2CCCC2)cc1 [Example 8] | 8.60 |
| CN(C)CCCSc1ccc(C(=O)c2ccc(SCCCN(C)C)cc2)cc1 [Example 32, Bis-[4-(3-dimethylamino-propylsulfanyl)-phenyl]methanone dihydrochloride] | 7.85 |
| O=Cc1ccc(-c2ccc(CN3CCCC3)cc2)cc1 [Example 27, 4′-Pyrrolidin-1-ylmethyl-biphenyl-4-carbaldehyde] | 8.06 |
| CNC(=N)SCc1ccc(Oc2ccc(CSC(=N)NC)cc2)cc1 [Example 13] | 6.20 |
| c1cc(-c2ccc(CN3CCCC3)s2)ccc1CN1CCCC1 [Example 1] | 8.05 |
| c1cc(Oc2ccc(CN3CCCC3)cc2)ccc1CN1CCCC1 [Example 6] | 9.30 |
| c1cc(CN2CCCC2)c(-c2ccc(CN3CCCC3)cc2)s1 [Example 4, 1-[(2-(4-Pyrrolidin-1-ylmethyl-phenyl)-thiophen)-3-ylmethyl]-pyrrolidine] | 8.05 |
| ON=Cc1ccc(-c2ccc(CN3CCCC3)cc2)cc1 [Example 28, 4′-Pyrrolidin-1-ylmethyl-biphenyl-4-carbaldehyde oxime] | 8.19 |
| O=[N+]([O-])c1cc(CN2CCCCC2)ccc1Sc1ccc(N2CCCCC2)cc1 [Example 26, 1-[4-(4-Piperidine-phenylsulfanyl)-3-nitro-benzyl]-piperidine] | 6.12 |
| CN(C)CCCOc1ccc(C(=O)c2ccc(O)cc2)cc1 [Example 33, [4-(3-Dimethylamino-propoxy)-phenyl]-(4-hydroxy-phenyl)-methanone] | 6.89 |
| c1cc(Oc2ccc(CSC3=NCCS3)cc2)ccc1CSC1=NCCS1 [Example 15, 2-[4-(4-(2Thiazolin)-2-ylthiomethyl-phenoxy-)-benzyl-thio]-2-thiazoline] | 5.59 |
| CN(C)CCN(c1ccc(CN2CCCC2)cc1)c1ccc(CN2CCCC2)cc1 [Example 25] | 6.34 |
| C/N=C(\NC)SCc1ccc(Oc2ccc(CS/C(=N/C)NC)cc2)cc1 [Example 12] | 7.07 |
| c1cc(N(CCCN2CCCCC2)c2ccc(CN3CCCC3)cc2)ccc1CN1CCCC1 [Example 24, (3Piperidin-1-yl-propyl)-bis-(4pyrrolidin1-ylmethyl-phenyl)-amine] | 8.46 |
| Cn1ccnc1SCc1ccc(Oc2ccc(CSc3nccn3C)cc2)cc1 [Example 16, 2-[4-(4-(1Methyl-imidazo)-2-ylthiomethyl-phenoxy-)-benzyl-thio]-1-methyl-imidazole] | 6.10 |
| c1ccc(CN(c2ccc(CN3CCCC3)cc2)c2ccc(CN3CCCC3)cc2)cc1 [Example 23, Benzyl-bis-(4pyrrolidin1-ylmethyl-phenyl)-amine] | 7.82 |
| c1cn(Cc2ccc(Cc3ccc(Cn4ccnc4)cc3)cc2)cn1 [Example 11] | 6.82 |
| c1cn(Cc2ccc(Oc3ccc(Cn4ccnc4)cc3)cc2)cn1 [Example 10] | 6.82 |
| c1cc(-c2ccc(CN3CCCC3)s2)sc1CN1CCCC1 [Example 3] | 8.85 |
| c1cc(CN2CCCC2)ccc1Cc1ccc(CN2CCCC2)cc1 [Example 9] | 8.70 |
